According to ChEMBL document CHEMBL1201862, “PubChem BioAssay data set” (2004):
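Interpolation was linear, between the two tested concentrations surrounding the appropriate level; five concentrations were tested over 48 hours in 96-well plates. Here, GI50 denotes the concentration required for 50% inhibition of growth.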 Calls of active or inactive are those of the source. Cut-off read from the data, not from the text of the source: active = GI50 up to about 1.1 µM and inactive = higher.

How the values were obtained:
Assay in all cases: DTP human tumour cell line panel, 48 h
[1] = tested on: NCI/ADR-RES
[2] = tested on: U-251
[3] = tested on: OVCAR-3
[4] = tested on: HOP-62
[5] = tested on: NCI-H226
[6] = tested on: KM12
[7] = tested on: HT-29
[8] = tested on: NCI-H460
[9] = tested on: MDA-N
[10] = tested on: SW-620
[11] = tested on: SF-268
[12] = tested on: PC-3
[13] = tested on: Hs-578T
[14] = tested on: DU-145
[15] = tested on: SK-MEL-5
[16] = tested on: NCI-H23
[17] = tested on: SNB-19
[18] = tested on: BT-549
[19] = tested on: SK-MEL-2
[20] = tested on: CCRF-CEM
[21] = tested on: 786-0
[22] = tested on: SK-MEL-28
[23] = tested on: LOX IMVI
[24] = tested on: HCT-116
[25] = tested on: T47D
[26] = tested on: RPMI-8226
[27] = tested on: HCT-15
[28] = tested on: UO-31
[29] = tested on: EKVX
[30] = tested on: SNB-75
[31] = tested on: HL-60
[32] = tested on: HOP-92
[33] = tested on: MOLT-4
[34] = tested on: TK-10
[35] = tested on: UACC-62
[36] = tested on: K562
[37] = tested on: MDA-MB-435
[38] = tested on: COLO 205
[39] = tested on: A498
[40] = tested on: SN12C
[41] = tested on: CAKI-1
[42] = tested on: Malme-3M
[43] = tested on: UACC-257
[44] = tested on: OVCAR-4
[45] = tested on: OVCAR-8
[46] = tested on: NCI-H522
[47] = tested on: MDA-MB-231
[48] = tested on: IGROV-1
[49] = tested on: MCF7
[50] = tested on: SR
[51] = tested on: SF-295
[52] = tested on: ACHN
[53] = tested on: M14
[54] = tested on: A549
[55] = tested on: SK-OV-3
[56] = tested on: SF-539
[57] = tested on: RXF 393
[58] = tested on: OVCAR-5

In the case of `O=c1c(C(c2ccc([N+](=O)[O-])cc2)c2c(O)oc3ccccc3c2=O)c(O)oc2ccccc12`, the GI50 [1] is reported as > 100 µM (inactive), the GI50 [2] is reported as > 100 µM (inactive) and the GI50 [3] is reported as > 100 µM (inactive). The GI50 [4] was > 100 µM (inactive), the GI50 [5] was > 100 µM (inactive) and the GI50 [6] was > 100 µM (inactive). The GI50 [7] was > 100 µM (inactive), the GI50 [8] was > 100 µM (inactive) and the GI50 [9] was > 100 µM (inactive). For the same compound, the GI50 [10] was > 100 µM (inactive), the GI50 [11] was > 100 µM (inactive) and the GI50 [12] was > 100 µM (inactive). The GI50 [13] was > 100 µM (inactive), the GI50 [14] was > 100 µM (inactive) and the GI50 [15] was > 100 µM (inactive). The GI50 [16] was > 100 µM (inactive), the GI50 [17] was > 100 µM (inactive) and the GI50 [18] was > 100 µM (inactive). For the same compound, the GI50 [19] was > 100 µM (inactive), the GI50 [20] was > 100 µM (inactive) and the GI50 [21] was > 100 µM (inactive). The GI50 [22] was > 100 µM (inactive), the GI50 [23] was > 100 µM (inactive) and the GI50 [24] was > 100 µM (inactive). For the same compound, the GI50 [25] was > 100 µM (inactive), the GI50 [26] was 1 µM (active) and the GI50 [27] was greater than 100 µM. The GI50 [28] was > 100 µM (inactive), the GI50 [29] was > 100 µM (inactive) and the GI50 [30] was 86.5 µM (inactive). For the same compound, the GI50 [31] was > 100 µM (inactive), the GI50 [32] was > 100 µM (inactive) and the GI50 [33] was > 100 µM (inactive). The GI50 [34] was > 100 µM (inactive), the GI50 [35] was > 100 µM (inactive) and the GI50 [36] was 10 µM (inactive). The GI50 [37] was > 100 µM (inactive), the GI50 [38] was > 100 µM (inactive) and the GI50 [39] was > 100 µM (inactive). For the same compound, the GI50 [40] was > 100 µM (inactive), the GI50 [41] was > 100 µM (inactive) and the GI50 [42] was > 100 µM (inactive). For the same compound, the GI50 [43] was > 100 µM (inactive), the GI50 [44] was > 100 µM (inactive) and the GI50 [45] was > 100 µM (inactive). The GI50 [46] was > 100 µM (inactive), the GI50 [47] was > 100 µM (inactive) and the GI50 [48] was > 100 µM (inactive).

With `Cc1cc(NS(=O)(=O)c2ccc(/N=[N+](\[O-])c3ccc(S(=O)(=O)Nc4cc(C)on4)cc3)cc2)no1` the GI50 [1] was > 100 µM (inactive), the GI50 [2] was > 100 µM (inactive) and the GI50 [3] was > 100 µM (inactive). For the same compound, the GI50 [4] was > 100 µM (inactive), the GI50 [5] was > 100 µM (inactive) and the GI50 [7] was > 100 µM (inactive). The GI50 [49] was > 100 µM (inactive), the GI50 [50] was > 100 µM (inactive) and the GI50 [11] was > 100 µM (inactive). For the same compound, the GI50 [12] was > 100 µM (inactive), the GI50 [13] was > 100 µM (inactive) and the GI50 [14] was > 100 µM (inactive). For the same compound, the GI50 [15] was > 100 µM (inactive), the GI50 [16] was > 100 µM (inactive) and the GI50 [17] was > 100 µM (inactive). For the same compound, the GI50 [18] was > 100 µM (inactive), the GI50 [19] was > 100 µM (inactive) and the GI50 [20] was > 100 µM (inactive). The GI50 [21] was > 100 µM (inactive), the GI50 [51] was > 100 µM (inactive) and the GI50 [23] was > 100 µM (inactive). The GI50 [52] was > 100 µM (inactive), the GI50 [24] was > 100 µM (inactive) and the GI50 [25] was > 100 µM (inactive). The GI50 [26] was > 100 µM (inactive), the GI50 [27] was greater than 100 µM and the GI50 [53] was > 100 µM (inactive). For the same compound, the GI50 [28] was > 100 µM (inactive), the GI50 [54] was > 100 µM (inactive) and the GI50 [29] was > 100 µM (inactive). The GI50 [30] was > 100 µM (inactive), the GI50 [31] was > 100 µM (inactive) and the GI50 [32] was > 100 µM (inactive). For the same compound, the GI50 [33] was > 100 µM (inactive), the GI50 [34] was > 100 µM (inactive) and the GI50 [35] was > 100 µM (inactive). For the same compound, the GI50 [36] was > 100 µM (inactive), the GI50 [37] was > 100 µM (inactive) and the GI50 [38] was > 100 µM (inactive). The GI50 [39] was > 100 µM (inactive), the GI50 [40] was > 100 µM (inactive) and the GI50 [41] was > 100 µM (inactive). For the same compound, the GI50 [42] was > 100 µM (inactive), the GI50 [43] was > 100 µM (inactive) and the GI50 [55] was > 100 µM (inactive). The GI50 [44] was > 100 µM (inactive), the GI50 [45] was > 100 µM (inactive) and the GI50 [56] was > 100 µM (inactive). For the same compound, the GI50 [57] was > 100 µM (inactive), the GI50 [46] was > 100 µM (inactive) and the GI50 [47] was > 100 µM (inactive). For the same compound, the GI50 [58] was > 100 µM (inactive) and the GI50 [48] was > 100 µM (inactive).

In the case of `COC(=O)/C=C1\SC2(O\C1=N/c1ccccc1)C1CC3CC(C1)CC2C3` (configuration not stated), the GI50 [1] is reported as > 100 µM (inactive), the GI50 [2] is reported as > 100 µM (inactive) and the GI50 [3] is reported as > 100 µM (inactive). The GI50 [4] was > 100 µM (inactive), the GI50 [5] was > 100 µM (inactive) and the GI50 [6] was > 100 µM (inactive). For the same compound, the GI50 [7] was > 100 µM (inactive), the GI50 [49] was > 100 µM (inactive) and the GI50 [8] was > 100 µM (inactive). The GI50 [9] was > 100 µM (inactive), the GI50 [10] was > 100 µM (inactive) and the GI50 [50] was > 100 µM (inactive). The GI50 [12] was > 100 µM (inactive), the GI50 [13] was > 100 µM (inactive) and the GI50 [14] was > 10 µM (inactive). For the same compound, the GI50 [15] was > 100 µM (inactive), the GI50 [17] was > 100 µM (inactive) and the GI50 [18] was > 100 µM (inactive). For the same compound, the GI50 [19] was > 100 µM (inactive), the GI50 [20] was > 100 µM (inactive) and the GI50 [22] was > 100 µM (inactive). For the same compound, the GI50 [51] was > 100 µM (inactive), the GI50 [23] was > 100 µM (inactive) and the GI50 [52] was > 100 µM (inactive). For the same compound, the GI50 [24] was > 100 µM (inactive), the GI50 [26] was > 100 µM (inactive) and the GI50 [27] was greater than 100 µM. For the same compound, the GI50 [28] was > 100 µM (inactive), the GI50 [54] was > 100 µM (inactive) and the GI50 [29] was > 100 µM (inactive). The GI50 [30] was > 100 µM (inactive), the GI50 [31] was > 100 µM (inactive) and the GI50 [32] was > 100 µM (inactive). The GI50 [33] was > 100 µM (inactive), the GI50 [34] was > 100 µM (inactive) and the GI50 [35] was > 100 µM (inactive). For the same compound, the GI50 [36] was > 100 µM (inactive), the GI50 [37] was > 100 µM (inactive) and the GI50 [39] was > 100 µM (inactive). For the same compound, the GI50 [40] was > 100 µM (inactive), the GI50 [41] was > 100 µM (inactive) and the GI50 [43] was > 100 µM (inactive). For the same compound, the GI50 [55] was > 100 µM (inactive), the GI50 [44] was 36.1 µM (inactive) and the GI50 [45] was > 100 µM (inactive). The GI50 [56] was > 100 µM (inactive), the GI50 [57] was > 100 µM (inactive) and the GI50 [46] was > 100 µM (inactive). For the same compound, the GI50 [47] was > 100 µM (inactive), the GI50 [58] was > 100 µM (inactive) and the GI50 [48] was > 100 µM (inactive).
